From ChEMBL document CHEMBL3351440, “Synthesis of diethylamino-curcumin mimics with substituted triazolyl groups and their sensitization effect of TRAIL against brain cancer cells” (2014)
The source made the active and inactive calls. No cut-off for these calls is given here.

What was measured:
[1] = Induction of apoptosis in human CRT-MG cells assessed as cell death at 10 uM after 24 hrs by LDH release assay; assay type: functional
[2] = tested on: CRT-MG; test: (§1) Cytotoxicity against TRAIL-induced human CRT-MG cells at 50 uM after 24 hrs; assay type: functional
[3] = tested on: CRT-MG; test: (§2) Induction of TRAIL-mediated human CRT-MG cell death at 10 uM after 24 hrs by LDH release assay relative to control; assay type: functional
[4] = as §2; assay type: functional
[5] = Induction of apoptosis in human CRT-MG cells assessed as inhibition of cell proliferation at 10 uM after 24 hrs; assay type: functional
[6] = as §1; assay type: functional
[7] = tested on: LNCaP; test: Cytotoxicity against TRAIL-induced human LNCAP cells assessed as caspase 3 activity at 10 uM after 48 hrs by MTS colorimetric assay relative to control; assay type: functional
[8] = Cytotoxicity against TRAIL-induced human U251MG cells assessed as cleavage of procaspase 3/8 at 10 uM after 48 hrs by MTS colorimetric assay; assay type: functional, U-251
[9] = Cytotoxicity against TRAIL-induced human U87MG cells assessed as cleavage of procaspase 3/8 at 10 uM after 48 hrs by MTS colorimetric assay; assay type: functional, U-87MG ATCC

With `CCN(CC)c1ccc(/C=C/C(=O)c2cccc(-n3cc(-c4ccccc4C(F)(F)F)nn3)c2)cc1` the Activity [1] was under 20%, the Activity [2] was “Active” and the Activity [3] was “Active”.

With `CCN(CC)c1ccc(/C=C/C(=O)c2cccc(-n3cc(-c4ccc(OC)cc4)nn3)c2)cc1` the Activity [1] was under 20% and the Activity [3] was “Active”.

With `CCN(CC)c1ccc(/C=C/C(=O)c2cccc(-n3cc(-c4cc(F)cc(F)c4)nn3)c2)cc1` the Activity [1] was under 20%.

Compound `CCN(CC)c1ccc(/C=C/C(=O)c2cccc(N=[N+]=[N-])c2)cc1` has an Activity [1] of 27.8%, an Activity [4] of 78.3% and an inhibition at 10 µM [5] of 55.6%.

In the case of `CCN(CC)c1ccc(/C=C/C(=O)c2cccc(-n3cc(C(C)(C)O)nn3)c2)cc1`, the Activity [1] is reported as 13.3%, the Activity [6] is reported as under 20% and the “fold change (FC)” value [4] is reported as 2.5.

In the case of `C=C(C)c1cn(-c2cccc(C(=O)/C=C/c3ccc(N(CC)CC)cc3)c2)nn1`, the Activity [1] is reported as under 20% and the Activity [3] is reported as “Active”.

In the case of `CCN(CC)c1ccc(/C=C/C(=O)c2cccc(-n3cc(-c4ccc(Br)cc4)nn3)c2)cc1`, the Activity [6] is reported as under 20% and the Activity [3] is reported as “Active”.

For `CCCCCc1ccc(-c2cn(-c3cccc(C(=O)/C=C/c4ccc(N(CC)CC)cc4)c3)nn2)cc1`, the Activity [1] was under 20% and the Activity [3] was “Active”.

In the case of `CCN(CC)c1ccc(/C=C/C(=O)c2cccc(-n3cc(-c4ccc(F)cc4)nn3)c2)cc1`, the Activity [1] is reported as under 20% and the Activity [3] is reported as “Active”.

For `CCN(CC)c1ccc(/C=C/C(=O)c2cccc(-n3cc(-c4ccc(C)cc4)nn3)c2)cc1`, the Activity [1] was under 20% and the Activity [3] was “Active”.

In the case of `CCN(CC)c1ccc(/C=C/C(=O)c2cccc(-n3cc(-c4cccc(Cl)c4)nn3)c2)cc1`, the Activity [1] is reported as under 20% and the Activity [3] is reported as “Active”.

For `CCN(CC)c1ccc(/C=C/C(=O)c2cccc(-n3cc(-c4ccccc4)nn3)c2)cc1`, the Activity [1] was 14.3%, the Activity [2] was “Active” and the “fold change (FC)” value [4] was 2.5.

Work on `COc1cc(/C=C/C(=O)CC(=O)/C=C/c2ccc(O)c(OC)c2)ccc1O` [CURCUMIN] yielded a Ratio [7] of 2, an Activity [8] of 60% and an Activity [9] of 45%.
